Assay results as given in patent US20180325914A1, “INCREASING STORAGE OF VITAMIN A, VITAMIN D AND/OR LIPIDS” (Salk Institute for Biological Studies, priority 2014, published 2018).

Test system: primary HSCs

## Cc1sc2c(c1C)C(c1ccc(Cl)cc1)=N[C@@H](CC(=O)OC(C)(C)C)c1nnc(C)n1-2 [JQ1, (S)-tert-butyl 2-(4-(4-chlorophenyl)-2,3,9-trimethyl-6H-thieno[3,2-f][1,2,4]triazolo[4,3-a][1,4]diazepin-6-yl)acetate]
Day_6_JQ1
  Stk39 value_2: 17.0092
  Sulf1 value_2: 53.8118
  Tbxa2r value_2: 1.603
  Tcea3 value_2: 1.947
  Tead3 value_2: 19.5802
  Thbs3 value_2: 1.4249
  Timp1 value_2: 296.521
  Tlcd2 value_2: 7.717
  Tm7sf3 value_2: 17.8846
  Tmem14a value_2: 2.145
  Tmem38a value_2: 9.934
  Tmem45a value_2: 21.4757
  Tmem119 value_2: 38.7358
  Tpm1 value_2: 1441.58
  Trf value_2: 73.4499
  Trim46 value_2: 1.758
  Trnp1 value_2: 13.5695
  Tsku value_2: 19.2147
  Tspan2 value_2: 2.762
  Tspan6 value_2: 21.2613
  Ttc13 value_2: 20.1057
  Tubb2b value_2: 18.8633
  Tubb4 value_2: 12.0841
  Txndc5 value_2: 194.663
  Ube2c value_2: 30.6226
  Unc119 value_2: 15.3231
  Vash2 value_2: 1.343
  Vegfa value_2: 27.576
  Wee1 value_2: 8.031
  Wfs1 value_2: 22.9762
  Whrn value_2: 4.993
  Wnt4 value_2: 18.5297
  Wnt5a value_2: 7.524
  Wnt9a value_2: 7.671
  Ydjc value_2: 1.905
  Zbtb8b value_2: 2.023
  Zyx value_2: 185.005
Gene 1190002N15Rik, mRNA-Seq, sample Day_6_JQ1
  1190002N15Rik value_2: 132.567
Gene Aard, mRNA-Seq, sample Day_6_JQ1
  Aard value_2: 83.973
Gene Abat, mRNA-Seq, sample Day_6_JQ1
  Abat value_2: 35.0761
Gene Adamts5, mRNA-Seq, sample Day_6_JQ1
  Adamts5 value_2: 91.9646
Gene Aldh1a1, mRNA-Seq, sample Day_6_JQ1
  Aldh1a1 value_2: 311.654
Gene Arxes2, mRNA-Seq, sample Day_6_JQ1
  Arxes2 value_2: 27.1896
Gene Asf1b, mRNA-Seq, sample Day_6_JQ1
  Asf1b value_2: 22.9334
Gene Atoh8, mRNA-Seq, sample Day_6_JQ1
  Atoh8 value_2: 73.1716
Gene Barx1, mRNA-Seq, sample Day_6_JQ1
  Barx1 value_2: 11.4288
Gene Bcmo1, mRNA-Seq, sample Day_6_JQ1
  Bcmo1 value_2: 159.902
Gene Birc5, mRNA-Seq, sample Day_6_JQ1
  Birc5 value_2: 50.4974
Gene Bub1, mRNA-Seq, sample Day_6_JQ1
  Bub1 value_2: 8.993
Gene Casc4, mRNA-Seq, sample Day_6_JQ1
  Casc4 value_2: 36.8307
Gene Cd248, mRNA-Seq, sample Day_6_JQ1
  Cd248 value_2: 118.878
Gene Cdca5, mRNA-Seq, sample Day_6_JQ1
  Cdca5 value_2: 10.0872
Gene Cdon, mRNA-Seq, sample Day_6_JQ1
  Cdon value_2: 16.8708
Gene Cep55, mRNA-Seq, sample Day_6_JQ1
  Cep55 value_2: 13.1668
Gene Ckap2, mRNA-Seq, sample Day_6_JQ1
  Ckap2 value_2: 33.1117
Gene Clca1, mRNA-Seq, sample Day_6_JQ1
  Clca1 value_2: 52.2679
Gene Col14a1, mRNA-Seq, sample Day_6_JQ1
  Col14a1 value_2: 181.433
Gene Ddr1, mRNA-Seq, sample Day_6_JQ1
  Ddr1 value_2: 106.289
Gene Dzip1, mRNA-Seq, sample Day_6_JQ1
  Dzip1 value_2: 31.5814
Gene Efemp1, mRNA-Seq, sample Day_6_JQ1
  Efemp1 value_2: 205.387
Gene Egr1, mRNA-Seq, sample Day_6_JQ1
  Egr1 value_2: 141.166
Gene Emilin2, mRNA-Seq, sample Day_6_JQ1
  Emilin2 value_2: 88.1199
Gene Epha7, mRNA-Seq, sample Day_6_JQ1
  Epha7 value_2: 11.3808
Gene Fam117a, mRNA-Seq, sample Day_6_JQ1
  Fam117a value_2: 15.5563
Gene Fam123b, mRNA-Seq, sample Day_6_JQ1
  Fam123b value_2: 9.43
Gene Fam83d, mRNA-Seq, sample Day_6_JQ1
  Fam83d value_2: 24.1741
Gene Fbln1, mRNA-Seq, sample Day_6_JQ1
  Fbln1 value_2: 13.4635
Gene Fbln5, mRNA-Seq, sample Day_6_JQ1
  Fbln5 value_2: 79.5082
Gene Fgfr2, mRNA-Seq, sample Day_6_JQ1
  Fgfr2 value_2: 86.0077
Gene Fhl1, mRNA-Seq, sample Day_6_JQ1
  Fhl1 value_2: 503.063
Gene Figf, mRNA-Seq, sample Day_6_JQ1
  Figf value_2: 27.0541
Gene Gamt, mRNA-Seq, sample Day_6_JQ1
  Gamt value_2: 12.8445
Gene Gdf11, mRNA-Seq, sample Day_6_JQ1
  Gdf11 value_2: 22.9531
Gene Ghr, mRNA-Seq, sample Day_6_JQ1
  Ghr value_2: 60.5749
Gene H1fx, mRNA-Seq, sample Day_6_JQ1
  H1fx value_2: 50.515
Gene H2afx, mRNA-Seq, sample Day_6_JQ1
  H2afx value_2: 155.278
Gene H19, mRNA-Seq, sample Day_6_JQ1
  H19 value_2: 82.2113
Gene Hist1h1c, mRNA-Seq, sample Day_6_JQ1
  Hist1h1c value_2: 246.293
Gene Hmcn1, mRNA-Seq, sample Day_6_JQ1
  Hmcn1 value_2: 13.3966
Gene Hmgn3, mRNA-Seq, sample Day_6_JQ1
  Hmgn3 value_2: 59.5606
Gene Hspa2, mRNA-Seq, sample Day_6_JQ1
  Hspa2 value_2: 19.5751
Gene Igf2r, mRNA-Seq, sample Day_6_JQ1
  Igf2r value_2: 67.7147
Gene Igfbp6, mRNA-Seq, sample Day_6_JQ1
  Igfbp6 value_2: 52.4488
Gene Isyna1, mRNA-Seq, sample Day_6_JQ1
  Isyna1 value_2: 113.425
Gene Itga1, mRNA-Seq, sample Day_6_JQ1
  Itga1 value_2: 101.182
Gene Itm2a, mRNA-Seq, sample Day_6_JQ1
  Itm2a value_2: 59.8717
Gene Kif23, mRNA-Seq, sample Day_6_JQ1
  Kif23 value_2: 11.9374
Gene Kifc1, mRNA-Seq, sample Day_6_JQ1
  Kifc1 value_2: 15.9311
Gene Klhl13, mRNA-Seq, sample Day_6_JQ1
  Klhl13 value_2: 100
Gene Lama1, mRNA-Seq, sample Day_6_JQ1
  Lama1 value_2: 16.8277
Gene Lum, mRNA-Seq, sample Day_6_JQ1
  Lum value_2: 485.984
Gene Mad2l1, mRNA-Seq, sample Day_6_JQ1
  Mad2l1 value_2: 31.9743
Gene Mapk8ip1, mRNA-Seq, sample Day_6_JQ1
  Mapk8ip1 value_2: 16.3375
Gene Meis1, mRNA-Seq, sample Day_6_JQ1
  Meis1 value_2: 24.7836
Gene Mmp17, mRNA-Seq, sample Day_6_JQ1
  Mmp17 value_2: 25.3895
Gene Mxd4, mRNA-Seq, sample Day_6_JQ1
  Mxd4 value_2: 76.146
Gene Ncapd2, mRNA-Seq, sample Day_6_JQ1
  Ncapd2 value_2: 18.5667
Gene Ncapg2, mRNA-Seq, sample Day_6_JQ1
  Ncapg2 value_2: 11.6063
Gene Ncaph, mRNA-Seq, sample Day_6_JQ1
  Ncaph value_2: 16.1078
Gene Nek2, mRNA-Seq, sample Day_6_JQ1
  Nek2 value_2: 11.522
Gene Nusap1, mRNA-Seq, sample Day_6_JQ1
  Nusap1 value_2: 10.0613
Gene Pcsk6, mRNA-Seq, sample Day_6_JQ1
  Pcsk6 value_2: 16.0741
Gene Pcyox1, mRNA-Seq, sample Day_6_JQ1
  Pcyox1 value_2: 135.704
Gene Peg3, mRNA-Seq, sample Day_6_JQ1
  Peg3 value_2: 37.0421
Gene Peg10, mRNA-Seq, sample Day_6_JQ1
  Peg10 value_2: 121.813
Gene Pkia, mRNA-Seq, sample Day_6_JQ1
  Pkia value_2: 28.0014
